Numbered stars: 1 amine (or outer) side, 2 acyl side, 3 side chain; on linkers, the order of the positions; unused ones are H or OH. Bridge positions count the residues as written; N and C are the ends. Square brackets hold non-standard residues; d marks the D form. Peptide text beside a SMILES is read from it. * marks the point of attachment. Pipz(1-CH2CO,4-CH2CH2NH) = O=C(CN1CCN(CCN[*:1])CC1)[*:2]; X1 = CC[C@@]1(O*)C(=O)OCc2c1cc1n(c2=O)Cc2cc3ccccc3nc2-1; Tyr(3-I) = N[C@@H](Cc1ccc(O)c(I)c1)C(=O)O; Glutaryl = O=C(CCCC(=O)[*:2])[*:1]; Suc = O=C(CCC(=O)[*:2])[*:1]; Nle = CCCC[C@H](N)C(=O)O; Abu = CC[C@H](N)C(=O)O; AEEA = NCCOCCOCC(=O)O; Ava = NCCCCC(=O)O; GABA = NCCCC(=O)O; βAla = NCCC(=O)O
How the values were obtained:
hSSTR-1 = molecular target: T1, hSSTR-1 (Homo sapiens, UniProt P30872); test: Somatostatin receptor radioligand binding, hSSTR-1 (CHO-K1 membranes); conditions: read-out: Ki hSSTR1 ± (SEM)
T1 construct: expressed in transfected cells; host or cells: CHO-K1
T1 sequence (P30872 whole entry): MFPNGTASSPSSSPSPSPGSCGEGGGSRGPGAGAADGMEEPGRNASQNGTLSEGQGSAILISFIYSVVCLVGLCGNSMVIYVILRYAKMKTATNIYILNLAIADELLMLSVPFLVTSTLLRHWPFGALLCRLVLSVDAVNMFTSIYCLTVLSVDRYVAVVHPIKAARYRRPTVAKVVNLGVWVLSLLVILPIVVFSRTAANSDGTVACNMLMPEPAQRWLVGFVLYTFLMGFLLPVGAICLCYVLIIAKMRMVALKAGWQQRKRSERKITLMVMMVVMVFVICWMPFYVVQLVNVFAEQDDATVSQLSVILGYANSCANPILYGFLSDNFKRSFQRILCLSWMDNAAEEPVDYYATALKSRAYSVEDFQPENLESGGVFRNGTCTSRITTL
Description: Membranes for in vitro receptor binding assays were obtained by homogenizing (Polytron setting 6, 15 sec) CHO-K1 cells expressing human somatostatin receptor subtypes hSSTR-1, hSSTR-2, hSSTR-3, hSSTR-4 or hSSTR-5 in ice-cold 50 mM Tris-HCl. The homogenized cells were centrifuged twice at 39,000 g for 10 minutes with an intermediate resuspension in fresh buffer. The final pellets were resuspended in 10 mM Tris-HCl to prepare the cell membrane homogenate for use in the binding assay.
The final assay volume was 0.3 ml.
The cell membrane homogenate was incubated with the radioligands for 90 minutes at 25° C. The incubations were terminated by rapid filtration through GF/C filters pre-soaked in 0.3% polyethylenimine using a Brandel® filtration manifold (Gaithersberg, Md., U.S.A.). Each tube and filter was washed three times with 5-ml aliquots of ice-cold buffer. Specific binding was defined as the total radioligand bound minus that bound in the presence of 1000 nM SRIF-14 (for hSSTR-1, hSSTR-3, hSSTR-4 or hSSTR-5), or 1000 nM DPhe-c(Cys-Tyr-D-Trp-Lys-Abu-Cys)-Thr-NH2 for hSSTR-2.

hSSTR-3 = molecular target: T2, hSSTR-3 (Homo sapiens, UniProt P32745); test: Somatostatin receptor radioligand binding, hSSTR-3 (CHO-K1 membranes); conditions: read-out: Ki hSSTR3 ± (SEM)
T2 construct: expressed in transfected cells; host or cells: CHO-K1
T2 sequence (P32745 whole entry): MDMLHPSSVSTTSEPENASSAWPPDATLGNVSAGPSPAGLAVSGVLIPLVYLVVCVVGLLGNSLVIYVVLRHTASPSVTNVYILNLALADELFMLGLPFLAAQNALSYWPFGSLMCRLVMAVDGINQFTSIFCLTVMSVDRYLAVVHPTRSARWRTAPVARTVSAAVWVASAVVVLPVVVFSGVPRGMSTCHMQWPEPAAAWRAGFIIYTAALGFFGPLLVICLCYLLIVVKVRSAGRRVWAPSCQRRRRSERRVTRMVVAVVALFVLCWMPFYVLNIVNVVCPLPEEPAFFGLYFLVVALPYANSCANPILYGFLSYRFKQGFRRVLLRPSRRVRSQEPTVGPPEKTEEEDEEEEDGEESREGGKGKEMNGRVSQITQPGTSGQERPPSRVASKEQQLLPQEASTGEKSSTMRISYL
Description: (§2) For the hSSTR-1, hSSTR-3, and hSSTR-4 assays, aliquots of the membrane preparations were incubated for 90 minutes at 25° C. with 0.05 nM [^125I-Tyr11]SRIF-14 in 50 mM HEPES (pH 7.4) buffer containing 0.2% BSA and 5 mM MgCl2. The final assay volume was 0.3 ml. For the hSSTR-2 and hSSTR-5 assays, [^125I]-[4-(2-hydroxyethyl)]-1-piperazinylacetyl-D-Phe-c(Cys-Tyr-D-Trp-Lys-Abu-Cys)-Thr-NH2 (0.05 nM) and [^125I]-D-Phe-c(Cys-Tyr-D-Trp-Lys-Val-Cys)-Thr-NH2 were employed as the radioligands, respectively.

hSSTR-2 = molecular target: T3, hSSTR-2 (Homo sapiens, UniProt P30874); test: Somatostatin receptor radioligand binding, hSSTR-2 (CHO-K1 membranes); conditions: read-out: Ki hSSTR2 ± (SEM)
T3 construct: expressed in transfected cells; host or cells: CHO-K1
T3 sequence (P30874 whole entry): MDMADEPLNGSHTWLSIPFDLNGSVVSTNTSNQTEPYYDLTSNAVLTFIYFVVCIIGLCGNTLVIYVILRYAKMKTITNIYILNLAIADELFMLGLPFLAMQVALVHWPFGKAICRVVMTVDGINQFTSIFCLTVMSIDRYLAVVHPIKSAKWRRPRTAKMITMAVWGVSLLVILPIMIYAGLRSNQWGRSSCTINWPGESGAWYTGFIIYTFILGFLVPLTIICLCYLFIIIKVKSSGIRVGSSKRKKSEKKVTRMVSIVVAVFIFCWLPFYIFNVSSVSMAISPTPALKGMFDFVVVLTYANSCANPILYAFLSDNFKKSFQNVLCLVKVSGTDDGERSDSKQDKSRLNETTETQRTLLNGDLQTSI
Description: as §2

[1] = Half-life determination in mouse plasma (LC-MS); type: in vitro ADME; conditions: 37° C.
Description: (§1) Samples containing approximately 50 μg/ml up to and including approximately 500 μg/ml of test compound according to Formula IA or IB or II was added to 450 μl human or mouse plasma, vortexed briefly and incubated at 37° C. At various time intervals, e.g., 0, 0.5, 1, 2, 4, 6, 8, 24, 36 and 48 hours, 50 μl of the compound-plasma mixture was added to 150 μl acetonitrile in a microcentrifuge tube. The mixture was vortexed, centrifuged for 5 minutes at 10K RPM, and 135 μl of supernatant was transferred to an injection vial. The recovered supernatant was analyzed by using a liquid chromatography-mass spectrophotometer system (LC-MS) consisting of a Finnigan Deca XP® mass spectrometer with an ESI probe at the positive ion mode. HPLC separation was carried out on a Luna 3μ C8 (2)® 3×50 mm column with a gradient decreasing from 100% A to 80% B for 10 minutes at a flow rate of 0.25 ml/min. Buffer A was 0.1% acetic acid in water and buffer B was 0.1% acetic acid acetonitrile.

hSSTR-4 = molecular target: T4, hSSTR-4 (Homo sapiens, UniProt P31391); test: Somatostatin receptor radioligand binding, hSSTR-4 (CHO-K1 membranes); conditions: read-out: Ki hSSTR4 ± (SEM)
T4 construct: expressed in transfected cells; host or cells: CHO-K1
T4 sequence (P31391 whole entry): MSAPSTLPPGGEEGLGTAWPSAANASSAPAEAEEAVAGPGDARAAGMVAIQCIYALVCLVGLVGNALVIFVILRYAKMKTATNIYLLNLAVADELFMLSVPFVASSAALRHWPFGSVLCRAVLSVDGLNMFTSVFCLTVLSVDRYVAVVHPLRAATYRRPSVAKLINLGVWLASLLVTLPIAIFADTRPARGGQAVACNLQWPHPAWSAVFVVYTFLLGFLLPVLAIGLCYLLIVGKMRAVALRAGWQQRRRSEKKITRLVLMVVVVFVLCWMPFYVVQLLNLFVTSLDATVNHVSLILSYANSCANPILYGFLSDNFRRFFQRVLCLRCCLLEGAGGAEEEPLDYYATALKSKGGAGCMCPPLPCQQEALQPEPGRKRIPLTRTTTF
Description: as §2

[2] = Half-life determination in human plasma (LC-MS); type: in vitro ADME; conditions: 37° C.
Description: as §1

hSSTR-5 = molecular target: T5, hSSTR-5 (Homo sapiens, UniProt P35346); test: Somatostatin receptor radioligand binding, hSSTR-5 (CHO-K1 membranes); conditions: read-out: Ki hSSTR5 ± (SEM)
T5 construct: expressed in transfected cells; host or cells: CHO-K1
T5 sequence (P35346 whole entry): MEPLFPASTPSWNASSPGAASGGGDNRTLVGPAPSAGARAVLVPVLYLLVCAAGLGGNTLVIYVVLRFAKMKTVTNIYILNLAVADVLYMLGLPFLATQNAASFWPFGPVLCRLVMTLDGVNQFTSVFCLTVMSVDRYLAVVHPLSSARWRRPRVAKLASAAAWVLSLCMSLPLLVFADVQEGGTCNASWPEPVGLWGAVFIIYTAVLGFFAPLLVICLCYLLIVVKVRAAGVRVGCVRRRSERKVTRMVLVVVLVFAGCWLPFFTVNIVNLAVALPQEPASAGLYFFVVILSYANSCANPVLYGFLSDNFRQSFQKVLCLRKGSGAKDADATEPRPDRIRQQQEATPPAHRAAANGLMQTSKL
Description: as §2

bombesin/GRP receptor = molecular target: T6, bombesin/GRP receptor (Rattus norvegicus, UniProt P52500); test: Bombesin/GRP radioligand binding (AR42J rat pancreas cell membranes); conditions: read-out: Ki bombesin receptor ± (SEM)
T6 construct: AR42J rat pancreas cells expressing the native bombesin/GRP receptor; endogenous in cells; host or cells: AR42J rat pancreas cells
T6 sequence (P52500 whole entry): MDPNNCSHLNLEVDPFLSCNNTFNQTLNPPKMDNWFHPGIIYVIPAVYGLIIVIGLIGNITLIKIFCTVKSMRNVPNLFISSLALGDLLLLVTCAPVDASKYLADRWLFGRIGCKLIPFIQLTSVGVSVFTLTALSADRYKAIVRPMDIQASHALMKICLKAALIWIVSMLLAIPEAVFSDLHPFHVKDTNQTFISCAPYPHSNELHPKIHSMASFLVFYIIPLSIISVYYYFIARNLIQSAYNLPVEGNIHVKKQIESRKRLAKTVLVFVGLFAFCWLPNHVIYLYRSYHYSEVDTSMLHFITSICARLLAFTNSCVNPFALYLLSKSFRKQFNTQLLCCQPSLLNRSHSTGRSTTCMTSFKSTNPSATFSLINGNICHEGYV
Description: Membranes were prepared for radioligand binding studies by homogenization of AR42J rat pancreas cells expressing the native bombesin/GRP receptor in 20 ml of ice-cold 50 mM Tris-HCl with a Brinkman Polytron® (Westbury, N.Y., U.S.A.) at settings of 6, 15 seconds. The homogenates were washed twice by centrifugation (39,000 g/10 minutes) and the final pellets were resuspended in 50 mM Tris-HCl containing 2.5 mM MgCl2 and 0.1% BSA. […] The filters were then washed three times with 5-ml aliquots of ice-cold 50 mM Tris-HCl. The bound radioactivity trapped on the filters was counted by gamma spectrometry (Wallac LKB®, Gaithersburg, Md., U.S.A.).

Row | Compound | Ki (hSSTR-1) [nM] | Ki (hSSTR-3) [nM] | Ki (hSSTR-2) [nM] | half-life [1] [h] | Ki (hSSTR-4) [nM] | half-life [2] [h] | Ki (hSSTR-5) [nM] | Ki (bombesin/GRP receptor) [nM]
1 | CC[C@@H]1NC(=O)[C@H](CCCCN)NC(=O)[C@@H](Cc2c[nH]c3ccccc23)NC(=O)[C@H](Cc2ccc(O)c(I)c2)NC(=O)[C@@H](NC(=O)[C@@H](Cc2ccc(O)cc2)NC(=O)[C@@H](Cc2ccc(O)cc2)NC(=O)[C@H](CCCCN)NC(=O)COCCOCCNC(=O)COCCOCCNC(=O)COCCOCCNC(=O)COCCOCCNC(=O)COCCOCCNC(=O)COCCOCCNC(=O)CCCC(=O)NCC(=O)O[C@]2(CC)C(=O)OCc3c2cc2n(c3=O)Cc3cc4ccccc4nc3-2)CSSC[C@@H](C(=O)N[C@H](C(N)=O)[C@@H](C)O)NC1=O [Example 2, Camptothecin-rvGly-Glut-(Doc)6-Lys-D-Tyr-D-Tyr-c(Cys-3-(I)Tyr-D-Trp-Lys-Abu-Cys)-Thr-NH2] ({X1-Gly-Glutaryl-AEEA-AEEA-AEEA-AEEA-AEEA-AEEA}-K[dY][dY]C[Tyr(3-I)][dW]K[Abu]CT-NH2; disulfide 4-9) | ≥ 1000 | 125 | 0.36 | 4.6 | ≥ 1000 | 2.2 | 3 | 
2 | CC[C@@H]1NC(=O)[C@H](CCCCN)NC(=O)[C@@H](Cc2c[nH]c3ccccc23)NC(=O)[C@H](Cc2ccc(O)c(I)c2)NC(=O)[C@@H](NC(=O)[C@@H](Cc2ccc(O)cc2)NC(=O)[C@@H](Cc2ccc(O)cc2)NC(=O)[C@H](CCCCN)NC(=O)COCCOCCNC(=O)COCCOCCNC(=O)COCCOCCNC(=O)COCCOCCNC(=O)CCCC(=O)NCC(=O)O[C@]2(CC)C(=O)OCc3c2cc2n(c3=O)Cc3cc4ccccc4nc3-2)CSSC[C@@H](C(=O)N[C@H](C(N)=O)[C@@H](C)O)NC1=O [Example 3, Camptothecin-rvGly-Glut-(Doc)4-Lys-D-Tyr-D-Tyr-c(Cys-3-(I)Tyr-D-Trp-Lys-Abu-Cys)-Thr-NH2] ({X1-Gly-Glutaryl-AEEA-AEEA-AEEA-AEEA}-K[dY][dY]C[Tyr(3-I)][dW]K[Abu]CT-NH2; disulfide 4-9) | ≥ 1000 | 94 | 0.1 | 5.7 | ≥ 1000 | 3.8 | 3.86 | 
3 | CC[C@@H]1NC(=O)[C@H](CCCCN)NC(=O)[C@@H](Cc2c[nH]c3ccccc23)NC(=O)[C@H](Cc2ccc(O)cc2)NC(=O)[C@@H](NC(=O)[C@@H](Cc2ccccc2)NC(=O)CN2CCN(CCNC(=O)COCCOCCNC(=O)COCCOCCNC(=O)COCCOCCNC(=O)COCCOCCNC(=O)CCC(=O)NCCCCCCCCC(=O)O[C@]3(CC)C(=O)OCc4c3cc3n(c4=O)Cc4cc5ccccc5nc4-3)CC2)CSSC[C@@H](C(=O)N[C@H](C(N)=O)[C@@H](C)O)NC1=O [Example 17, Camptothecin-rvAnc-Suc-(Doc)4-Aepa-D-Phe-cyclo(Cys-Tyr-D-Trp-Lys-Abu-Cys)-Thr-NH2] | ≥ 1000 |  |  | 15.6 |  | 28.6 | ≥ 1000 | 
4 | CC[C@@H]1NC(=O)[C@H](CCCCN)NC(=O)[C@@H](Cc2c[nH]c3ccccc23)NC(=O)[C@H](Cc2ccc(O)cc2)NC(=O)[C@@H](NC(=O)[C@@H](Cc2ccccc2)NC(=O)CN2CCN(CCNC(=O)COCCOCCNC(=O)COCCOCCNC(=O)COCCOCCNC(=O)COCCOCCNC(=O)CCC(=O)NCCCCCCC(=O)O[C@]3(CC)C(=O)OCc4c3cc3n(c4=O)Cc4cc5ccccc5nc4-3)CC2)CSSC[C@@H](C(=O)N[C@H](C(N)=O)[C@@H](C)O)NC1=O [Example 18, Camptothecin-rvAhp-Suc-(Doc)4-Aepa-D-Phe-cyclo(Cys-Tyr-D-Trp-Lys-Abu-Cys)-Thr-NH2] | ≥ 1000 |  |  | 16.2 |  | 8 | ≥ 1000 | 
5 | CCCC[C@H](NC(=O)[C@H](CC(C)C)NC(=O)[C@H](Cc1c[nH]cn1)NC(=O)CCNC(=O)[C@@H](NC(=O)[C@H](C)NC(=O)[C@H](Cc1c[nH]c2ccccc12)NC(=O)[C@H](CCC(N)=O)NC(=O)CCCNC(=O)[C@H](CC(C)C)NC(=O)CN1CCN(CCNC(=O)COCCOCCNC(=O)COCCOCCNC(=O)COCCOCCNC(=O)COCCOCCNC(=O)CCC(=O)NCC(=O)O[C@]2(CC)C(=O)OCc3c2cc2n(c3=O)Cc3cc4ccccc4nc3-2)CC1)C(C)C)C(N)=O [Example 22, Camptothecin-rvGly-Suc-(Doc)4-Aepa-Leu-Gaba-Gln-Trp-Ala-Val-β-Ala-His-Leu-Nle-NH2] ({X1-Gly-Suc-AEEA-AEEA-AEEA-AEEA}-[Pipz(1-CH2CO,4-CH2CH2NH)]L[GABA]QWAV[βAla]HL[Nle]-NH2) |  |  |  | 2.1 |  | 1.8 |  | 18.2
6 | CCCC[C@H](NC(=O)[C@H](CC(C)C)NC(=O)[C@H](Cc1c[nH]cn1)NC(=O)CCNC(=O)[C@@H](NC(=O)[C@H](C)NC(=O)[C@H](Cc1c[nH]c2ccccc12)NC(=O)[C@H](CCC(N)=O)NC(=O)[C@H](CC(N)=O)NC(=O)CCCNC(=O)CN1CCN(CCNC(=O)COCCOCCNC(=O)COCCOCCNC(=O)COCCOCCNC(=O)COCCOCCNC(=O)CCC(=O)NCC(=O)O[C@]2(CC)C(=O)OCc3c2cc2n(c3=O)Cc3cc4ccccc4nc3-2)CC1)C(C)C)C(N)=O [Example 23, Camptothecin-rvGly-Suc-(Doc)4-Aepa-Gaba-Asn-Gln-Trp-Ala-Val-β-Ala-His-Leu-Nle-NH2] ({X1-Gly-Suc-AEEA-AEEA-AEEA-AEEA}-[Pipz(1-CH2CO,4-CH2CH2NH)][GABA]NQWAV[βAla]HL[Nle]-NH2) |  |  |  | 2.9 |  | 4.2 |  | 7.65
7 | CCCC[C@H](NC(=O)[C@H](CC(C)C)NC(=O)[C@H](Cc1c[nH]cn1)NC(=O)CCNC(=O)[C@@H](NC(=O)[C@H](C)NC(=O)[C@H](Cc1c[nH]c2ccccc12)NC(=O)[C@H](CCC(N)=O)NC(=O)[C@H](CC(N)=O)NC(=O)CCCCNC(=O)CN1CCN(CCNC(=O)COCCOCCNC(=O)COCCOCCNC(=O)COCCOCCNC(=O)COCCOCCNC(=O)CCC(=O)NCC(=O)O[C@]2(CC)C(=O)OCc3c2cc2n(c3=O)Cc3cc4ccccc4nc3-2)CC1)C(C)C)C(N)=O [Example 24, Camptothecin-rvGly-Suc-(Doc)4-Aepa-Apn-Asn-Gln-Trp-Ala-Val-β-Ala-His-Leu-Nle-NH2] ({X1-Gly-Suc-AEEA-AEEA-AEEA-AEEA}-[Pipz(1-CH2CO,4-CH2CH2NH)][Ava]NQWAV[βAla]HL[Nle]-NH2) |  |  |  | 2.6 |  | 4.6 |  | 4.07
8 | CCCC[C@H](NC(=O)[C@H](CC(C)C)NC(=O)[C@H](Cc1c[nH]cn1)NC(=O)CCNC(=O)[C@@H](NC(=O)[C@H](C)NC(=O)[C@H](Cc1c[nH]c2ccccc12)NC(=O)[C@H](CCC(N)=O)NC(=O)[C@@H](Cc1ccc(O)cc1)NC(=O)[C@@H](CO)NC(=O)CN1CCN(CCNC(=O)COCCOCCNC(=O)COCCOCCNC(=O)COCCOCCNC(=O)COCCOCCNC(=O)CCC(=O)NCC(=O)O[C@]2(CC)C(=O)OCc3c2cc2n(c3=O)Cc3cc4ccccc4nc3-2)CC1)C(C)C)C(N)=O [Example 27, Camptothecin-rvGly-Suc-(Doc)4-Aepa-D-Ser-D-Tyr-Gln-Trp-Ala-Val-β-Ala-His-Leu-Nle-NH2] ({X1-Gly-Suc-AEEA-AEEA-AEEA-AEEA}-[Pipz(1-CH2CO,4-CH2CH2NH)][dS][dY]QWAV[βAla]HL[Nle]-NH2) |  |  |  | 3.8 |  | 4.5 |  | 3.96
